# Assay results taken from patent publication US12052991B2, “Substituted pyridinyloxybenzenes and salts thereof and use thereof as herbicidal agents” (Bayer Aktiengesellschaft, priority 2018, dated 2024).
# Key:
# Format in all cases: in vivo
# [1] = system: Amaranthus retroflexus (AMARE); assay: Herbicidal pre-emergence action, test C (Table C6); conditions: visual scoring after about 3 weeks, 100% = plants have died, 0% = like control plants
# Procedure, shortened: (§1)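 % herbicidal effect, visual, vs untreated; 0% = as control, 100% = plants dead. Scored ~3 wk post-application. Rate 1280 or 320 g/ha onto covering soil pre-emergence.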
# [2] = system: harmful plants ABUTH, AMARE, ECHCG, LOLRI, MATIN, POAAN, SETVI, STEME, ALOMY, DIGSA, KCHSC and VERPE; assay: Herbicidal post-emergence action, summary of Tables B1-B12; conditions: application rate of 1280 or 320 g of active ingredient per hectare; summary in words
# Procedure, shortened: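 Greenhouse weeds in sandy loam treated post-emergence at the one-leaf stage, 2–3 weeks after sowing, with WP or EC formulations sprayed with 0.5% additive at 600 L/ha water, 1280 or 320 g/ha. Damage rated visually after about 3 weeks versus untreated controls (0% = like control, 100% = dead).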
# Bassia scoparia (KCHSC) [3] = assay: Herbicidal pre-emergence action, test C (Table C11); conditions: dosage 1280 g/ha, visual scoring vs untreated controls
# Procedure, shortened: as §1
# [4] = system: Matricaria inodora (MATIN); assay: Herbicidal post-emergence action (Table B7); conditions: rated visually after about 3 weeks, 100% = plants have died, 0% = like control plants
# Method: Seeds of mono- and dicotyledonous weed plants were placed in plastic pots in sandy loam soil (doubly sown with in each case one species of mono- or dicotyledonous weed plants per pot), covered with soil and cultivated in a greenhouse under controlled growth conditions. 2 to 3 weeks after sowing, the test plants were treated at the one-leaf stage. The compounds of the invention, formulated in the form of wettable powders (WP) or as emulsion concentrates (EC), were applied onto the green parts of the plants as aqueous suspension or emulsion with addition of 0.5% additive at a water application rate of 600 liters per hectare (converted). After the test plants had been kept in the greenhouse under optimum growth conditions for about 3 weeks, the activity of the preparations was rated visually in comparison to untreated controls. For example, 100% activity=the plants have died, 0% activity=like control plants. Tables B1 to B12 below show the effects of selected compounds of the general formula (I) according to Table 1 on various harmful plants and an application rate corresponding to 1280 or 320 g/ha, which were obtained by the experimental procedure mentioned above.
# [5] = system: harmful plants ABUTH, AMARE, ECHCG, LOLRI, MATIN, POAAN, SETVI, STEME, ALOMY, DIGSA, KCHSC and VERPE; assay: Herbicidal pre-emergence action (test C), summary of Tables C1-C12; conditions: application rate of 1280 or 320 g of active ingredient per hectare; summary in words
# Procedure, shortened: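 Pre-emergence pot test in sandy loam: WP or EC formulations were sprayed onto the covering soil with 0.5% additive at 600 L/ha water, at 1280 or 320 g/ha. Plants were kept in the greenhouse, and activity was rated visually about 3 weeks later as % versus untreated controls (100% = dead).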
# Poa annua (POAAN) [6] = assay: Herbicidal post-emergence action (Table B3); conditions: rated visually after about 3 weeks, 100% = plants have died, 0% = like control plants
# Procedure, shortened: (§2)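 Greenhouse pot-grown weeds in sandy loam, sprayed at the one-leaf stage (2–3 weeks post-sowing) with WP or EC formulations plus 0.5% additive at 600 l/ha water, at 1280 or 320 g/ha. Visual % activity versus untreated controls rated about 3 weeks later (100% = dead).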
# [7] = system: Echinochloa crus-galli (ECHCG); assay: Herbicidal pre-emergence action, test C (Table C1); conditions: dosage 1280 g/ha; visual scoring after about 3 weeks; 100% = plants have died, 0% = like control plants
# Procedure, shortened: as §1
# Veronica persica (VERPE) [8] = assay: Herbicidal pre-emergence action, test C (Table C12); conditions: visual scoring vs untreated controls
# Procedure, shortened: as §1
# Setaria viridis (SETVI) = assay: Herbicidal pre-emergence action, test C (Table C4); conditions: visual scoring after about 3 weeks, 100% = plants have died, 0% = like control plants
# Procedure, shortened: as §1
# [9] = system: Echinochloa crus-galli (ECHCG); assay: Herbicidal post-emergence action (Table B1); conditions: 1280 g/ha; rated visually after about 3 weeks; 100% = plants have died, 0% = like control plants
# Procedure, shortened: as §2
# [10] = system: Matricaria inodora (MATIN); assay: Herbicidal pre-emergence action, test C (Table C7); conditions: visual scoring after about 3 weeks, 100% = plants have died, 0% = like control plants
# Procedure, shortened: as §1
# [11] = system: Digitaria sanguinalis (DIGSA); assay: Herbicidal pre-emergence action, test C (Table C10); conditions: visual scoring after about 3 weeks, 100% = plants have died, 0% = like control plants
# Procedure, shortened: as §1
# Veronica persica (VERPE) [12] = assay: Herbicidal post-emergence action (Table B12); conditions: visual rating about 3 weeks after treatment, 100% = plants have died, 0% = like control plants
# Procedure, shortened: as §2
# Bassia scoparia (KCHSC) [13] = assay: Herbicidal post-emergence action (Table B11); conditions: visual rating about 3 weeks after treatment, 100% = plants have died, 0% = like control plants
# Procedure, shortened: as §2
# Stellaria media (STEME) [14] = assay: Herbicidal post-emergence action (Table B8); conditions: visual rating about 3 weeks after treatment, 100% = plants have died, 0% = like control plants
# Procedure, shortened: as §2
# [15] = system: Alopecurus myosuroides (ALOMY); assay: Herbicidal pre-emergence action, test C (Table C9); conditions: visual scoring after about 3 weeks, 100% = plants have died, 0% = like control plants
# Procedure, shortened: as §1
# [16] = system: Amaranthus retroflexus (AMARE); assay: Herbicidal post-emergence action (Table B6); conditions: visual rating about 3 weeks after treatment, 100% = plants have died, 0% = like control plants
# Procedure, shortened: as §2
# [17] = system: Abutilon theophrasti (ABUTH); assay: Herbicidal post-emergence action (Table B5); conditions: rated visually after about 3 weeks, 100% = plants have died, 0% = like control plants
# Procedure, shortened: as §2
# [18] = system: Alopecurus myosuroides (ALOMY); assay: Herbicidal post-emergence action (Table B9); conditions: rated visually after about 3 weeks, 100% = plants have died, 0% = like control plants
# Procedure, shortened: as §2
# [19] = system: Abutilon theophrasti (ABUTH); assay: Herbicidal pre-emergence action, test C (Table C5); conditions: visual scoring after about 3 weeks, 100% = plants have died, 0% = like control plants
# Procedure, shortened: as §1
# Poa annua (POAAN) [20] = assay: Herbicidal pre-emergence action, test C (Table C3); conditions: visual scoring after about 3 weeks, 100% = plants have died, 0% = like control plants
# Procedure, shortened: as §1
# Stellaria media (STEME) [21] = assay: Herbicidal pre-emergence action, test C (Table C8); conditions: visual scoring after about 3 weeks, 100% = plants have died, 0% = like control plants
# Procedure, shortened: as §1
# [22] = system: Digitaria sanguinalis (DIGSA); assay: Herbicidal post-emergence action (Table B10); conditions: dosage 1280 g/ha; visual rating about 3 weeks after treatment; 100% = plants have died, 0% = like control plants
# Procedure, shortened: as §2
# Poa annua (POAAN) [23] = assay: Herbicidal early post-emergence action (Table A3); conditions: 1900 g/ha; scored visually 9 to 12 days after treatment; 100% = plants have died, 0% = like control plants
# Method: (§3) Seeds of monocotyledonous and dicotyledonous weed plants were placed in 96-well microtiter plates in quartz sand and grown in a climatized chamber under controlled growth conditions. 5 to 7 days after sowing, the test plants were treated at the cotyledon stage. The compounds according to the invention, formulated in the form of emulsion concentrates (EC), were applied with a water application rate of the equivalent of 2200 liters per hectare. After the test plants had been left to stand in the climatized chamber for 9 to 12 days under optimum growth conditions, the effect of the preparations was scored visually in comparison to untreated controls. For example, 100% activity=the plants have died, 0% activity=like control plants. Tables A1 to A8 below show the effects of selected compounds of the general formula (I) according to Table 1 on various harmful plants and an application rate corresponding to 1900 g/ha, which were obtained by the experimental procedure mentioned above.
# [24] = system: harmful plants AGSTE, DIPTE, LOLPE, MATCH, POAAN, SETVI, STEME and VERPE; assay: Herbicidal early post-emergence action, summary of Tables A1-A8; conditions: application rate of 1900 g of active ingredient per hectare; summary in words
# Method: as §3, with “plants.” for “plants. Tables A1 to A8 below show the effects of selected compounds of the general formula (I) according to Table 1 on various harmful plants and an application rate corresponding to 1900 g/ha, which were obtained by the experimental procedure mentioned above.”
# Tables A1 to A8 below show the effects of selected compounds of the general formula (I) according to Table 1 on various harmful plants and an application rate corresponding to 1900 g/ha, which were obtained by the experimental procedure mentioned above.
# As the results of Tables A1-A8 show, compounds no.
Structure (SMILES),Pre-emergence action against Amaranthus retroflexus (AMARE) ([1]; dosage 320 g/ha) [%],Pre-emergence action against Amaranthus retroflexus (AMARE) ([1]; dosage 1280 g/ha) [%],herbicidal activity against the harmful plants of Tables B1-B12 in post-emergence treatment [2],Pre-emergence action against Bassia scoparia (KCHSC) (Bassia scoparia (KCHSC) [3]) [%],Post-emergence action against Matricaria inodora (MATIN) ([4]; 320 g/ha) [%],Post-emergence action against Matricaria inodora (MATIN) ([4]; 1280 g/ha) [%],herbicidal activity against the harmful plants of Tables C1-C12 in pre-emergence treatment [5],Post-emergence action against Poa annua (POAAN) (Poa annua (POAAN) [6]; 320 g/ha) [%],Post-emergence action against Poa annua (POAAN) (Poa annua (POAAN) [6]; 1280 g/ha) [%],Pre-emergence action against Veronica persica (VERPE) (Veronica persica (VERPE) [8]; dosage 1280 g/ha) [%],Pre-emergence action against Setaria viridis (SETVI) (Setaria viridis (SETVI); dosage 1280 g/ha) [%],Pre-emergence action against Matricaria inodora (MATIN) ([10]; dosage 320 g/ha) [%],Pre-emergence action against Matricaria inodora (MATIN) ([10]; dosage 1280 g/ha) [%],Pre-emergence action against Digitaria sanguinalis (DIGSA) ([11]; dosage 1280 g/ha) [%],Post-emergence action against Veronica persica (VERPE) (Veronica persica (VERPE) [12]; dosage 320 g/ha) [%],Post-emergence action against Veronica persica (VERPE) (Veronica persica (VERPE) [12]; dosage 1280 g/ha) [%],Post-emergence action against Bassia scoparia (KCHSC) (Bassia scoparia (KCHSC) [13]; dosage 1280 g/ha) [%],Post-emergence action against Stellaria media (STEME) (Stellaria media (STEME) [14]; dosage 320 g/ha) [%],Post-emergence action against Stellaria media (STEME) (Stellaria media (STEME) [14]; dosage 1280 g/ha) [%],Pre-emergence action against Alopecurus myosuroides (ALOMY) ([15]; dosage 1280 g/ha) [%],also measured
Cc1cc(C)c(-c2cc(C(F)F)no2)c(Oc2ccccn2)c1 [Example 1-86],100,100,very good herbicidal activity,100,100,100,very good herbicidal activity,100,100,100,100,90,100,100,100,100,90,100,100,90,Pre-emergence action against Echinochloa crus-galli (ECHCG) [7]: 100%; Pre-emergence action against Veronica persica (VERPE) (Veronica persica (VERPE) [8]; dosage 320 g/ha): 90%; Post-emergence action against Echinochloa crus-galli (ECHCG) [9]: 100%; Pre-emergence action against Alopecurus myosuroides (ALOMY) ([15]; dosage 320 g/ha): 90%; Post-emergence action against Amaranthus retroflexus (AMARE) ([16]; dosage 1280 g/ha): 100%; Post-emergence action against Abutilon theophrasti (ABUTH) ([17]; 320 g/ha): 100%; Post-emergence action against Abutilon theophrasti (ABUTH) ([17]; 1280 g/ha): 100%; Post-emergence action against Alopecurus myosuroides (ALOMY) ([18]; 320 g/ha): 100%; Post-emergence action against Alopecurus myosuroides (ALOMY) ([18]; 1280 g/ha): 100%; Pre-emergence action against Abutilon theophrasti (ABUTH) ([19]; dosage 320 g/ha): 90%; Pre-emergence action against Abutilon theophrasti (ABUTH) ([19]; dosage 1280 g/ha): 100%; Pre-emergence action against Poa annua (POAAN) (Poa annua (POAAN) [20]; dosage 320 g/ha): 90%; Pre-emergence action against Poa annua (POAAN) (Poa annua (POAAN) [20]; dosage 1280 g/ha): 100%; Pre-emergence action against Stellaria media (STEME) (Stellaria media (STEME) [21]; dosage 320 g/ha): 90%; Pre-emergence action against Stellaria media (STEME) (Stellaria media (STEME) [21]; dosage 1280 g/ha): 100%
Cc1cc(F)c(-c2cc(C(F)F)no2)c(Oc2ncc(Cl)cc2F)c1 [Example 1-89],100,100,very good herbicidal activity,90,100,100,very good herbicidal activity,100,100,90,100,90,90,100,100,100,100,100,100,100,Pre-emergence action against Setaria viridis (SETVI) (Setaria viridis (SETVI); dosage 320 g/ha): 100%; Pre-emergence action against Digitaria sanguinalis (DIGSA) ([11]; dosage 320 g/ha): 90%; Post-emergence action against Bassia scoparia (KCHSC) (Bassia scoparia (KCHSC) [13]; dosage 320 g/ha): 90%; Post-emergence action against Amaranthus retroflexus (AMARE) ([16]; dosage 320 g/ha): 100%; Post-emergence action against Amaranthus retroflexus (AMARE) ([16]; dosage 1280 g/ha): 100%; Post-emergence action against Abutilon theophrasti (ABUTH) ([17]; 320 g/ha): 100%; Post-emergence action against Abutilon theophrasti (ABUTH) ([17]; 1280 g/ha): 100%; Post-emergence action against Alopecurus myosuroides (ALOMY) ([18]; 320 g/ha): 100%; Post-emergence action against Alopecurus myosuroides (ALOMY) ([18]; 1280 g/ha): 100%; Pre-emergence action against Abutilon theophrasti (ABUTH) ([19]; dosage 1280 g/ha): 90%; Pre-emergence action against Poa annua (POAAN) (Poa annua (POAAN) [20]; dosage 320 g/ha): 90%; Pre-emergence action against Poa annua (POAAN) (Poa annua (POAAN) [20]; dosage 1280 g/ha): 100%; Post-emergence action against Digitaria sanguinalis (DIGSA) [22]: 100%; Pre-emergence action against Stellaria media (STEME) (Stellaria media (STEME) [21]; dosage 320 g/ha): 90%; Pre-emergence action against Stellaria media (STEME) (Stellaria media (STEME) [21]; dosage 1280 g/ha): 90%
Cc1ccc(-c2ccccc2Oc2ncc(Cl)cc2F)nc1 [Example 1-106],,,,,,,,,,,,,,,,,,,,,Early post-emergence effect against Poa annua (POAAN) (Poa annua (POAAN) [23]): 80%; herbicidal activity against the harmful plants of Tables A1-A8 in early post-emergence treatment [24]: very good herbicidal activity
